The values that follow come from patent US20060110401A1, “Mixture of peptides from c and ns3 proteins of the hepatitis c virus and applications thereof” (priority 2002, published 2006).

Where two headings read alike, the source gives them in different places. Marks after values point to notes of the source that are not given here. Residues, ends and D or L forms follow the SMILES beside them.

The test system of one assay is DR3. In words: DR3. The text has this:
(§1) Table printed on a drawing sheet, Figure 2
Where the first naming reader finds the target: head: DR3

The test system of the next assay is DP402. As to the kind of experiment: DP402.
Another assay has as its system DRB5. In words: DRB5.
A further assay has as its system DRB4. As to the kind of experiment: DRB4.
From the text: as §1
Where the first naming reader finds the target: head: DRB4

The target of a further assay is T1, HLA-DR1 (DRB1*0101) (Homo sapiens, UniProt P01903+P01911, A100R/D57E/F55L/F60I/F76Y/I96L/L162R/M171V/P40L/Q125E/R42F/V115G/Y59C).
T1 construct: endogenous in cells; host or cells: homozygous EBV-transformed human B lymphocyte lines; immunopurified with antibody L243
In words: biochemical. As to conditions: for IC50: DRB1*0101. The class given is binding.

For a further assay, the system named is DR11. In words: DR11.
From the text: as §1
Where the first naming reader finds the target: head: DR11

The test system of another assay is DRB3. As to the kind of experiment: DRB3.
The subject of a further assay is DR15. In words: DR15.
The next assay has as its system DR4. In words: DR4.
In another assay the test system is DP401. In words: DP401.
Assay [1] relates to T lymphocytes derived from PBMCs from patients chronically infected with HCV. The assay is classed as cell-based, human.
In another assay the test system is DR1. As to the kind of experiment: DR1.
In the next assay the target is HLA-DR11 (DRB1*1101) (Homo sapiens, UniProt P01903+P01911, A100R/A169T/A87E/I96F/K41T/L162R/M171V/P40S/Q125H/Q178H/Q39Y/Q99D/R42S/S66Y/T262R/V115G/W38E). As to the kind of experiment: biochemical. The assay is classed as binding. The conditions noted are these: read-out: binds with good affinity to DR11.
HLA-DR11 (DRB1*1101), sequence (P01903 26-254 limits assumed, other chains not shown): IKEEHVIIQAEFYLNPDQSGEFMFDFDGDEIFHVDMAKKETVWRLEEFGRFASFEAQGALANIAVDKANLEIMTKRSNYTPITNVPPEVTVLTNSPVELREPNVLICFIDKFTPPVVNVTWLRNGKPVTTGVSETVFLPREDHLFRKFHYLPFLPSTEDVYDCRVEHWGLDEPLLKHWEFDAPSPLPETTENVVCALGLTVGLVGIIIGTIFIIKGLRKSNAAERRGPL
Another assay concerns the target T2, HLA-DRB5 (DRB5*0101) (Homo sapiens, UniProt P01903+Q30154).
T2 construct: endogenous in cells; host or cells: homozygous EBV-transformed human B lymphocyte lines; immunopurified with antibody L243
As to the kind of experiment: biochemical. The class given is binding. The conditions noted are these: read-out: binds with good affinity to DRB5.

The target of a further assay is HLA-DR7 (DRB1*0701) (Homo sapiens, UniProt P01903+P01911, A100R/A102G/A103Q/D57E/D86V/E43K/F76Y/K127E/L162R/M171V/P40G/Q125H/Q99D/R33Q/R42Y/R54Q/S133A/S66F/T210M/V115G/Y107V/Y59L/Y89S). In words: biochemical. The assay is classed as binding. As to conditions: read-out: binds with good affinity to DR7.
A further assay deals with T3, HLA-DR4 (DRB1*0401) (Homo sapiens, UniProt P01903+P01911, A100K/A169T/F76Y/I96L/K127E/L162R/M171V/N62H/P40V/Q125Y/R42H/S133A/S149N/S66Y/V115G/V209L/W38E).
T3 construct: endogenous in cells; host or cells: homozygous EBV-transformed human B lymphocyte lines; immunopurified with antibody L243
In words: biochemical. The assay is classed as binding. As to conditions: read-out: binds with good affinity to DR4.

Another assay addresses T4, HLA-DRB4 (DRB4*0101) (Homo sapiens, UniProt P01903+P13762, G164S).
T4 construct: endogenous in cells; host or cells: homozygous EBV-transformed human B lymphocyte lines; immunopurified with antibody L243
As to the kind of experiment: biochemical. The class given is binding. As to conditions: read-out: binds with good affinity to DRB4.

A further assay addresses HLA-DR13 (DRB1*1301) (Homo sapiens, UniProt P01903+P01911, A100E/A169T/K41T/L162R/M171V/P40S/Q125H/Q178H/Q39Y/Q99D/R42S/S66N/T262R/W38E/Y61H). As to the kind of experiment: biochemical. The class given is binding.
The mark [2] stands for this setting: patient 067, supernatant 48 h, —: not detected.
The mark [3] stands for this setting: patient 078, supernatant 48 h, —: not detected.
Setting [4] is: patient 093, supernatant 48 h, —: not detected.
The mark [5] stands for this setting: patient 659, supernatant 48 h, —: not detected.
[6] abbreviates: patient 815, supernatant 48 h, —: not detected.
Setting [7] is: read-out: binds with good affinity to DR1.

`CC(C)C[C@H](NC(=O)[C@H](Cc1c[nH]c2ccccc12)NC(=O)CNC(=O)[C@H](C)NC(=O)[C@@H](N)Cc1c[nH]c2ccccc12)C(=O)N[C@@H](CC(C)C)C(=O)N[C@@H](CO)C(=O)N1CCC[C@H]1C(=O)N[C@@H](CCCNC(=N)N)C(=O)NCC(=O)N[C@@H](CO)C(=O)N[C@@H](CCCNC(=N)N)C(=O)N1CCC[C@H]1C(=O)N[C@@H](CO)C(=O)N[C@@H](Cc1c[nH]c2ccccc12)C(=O)O` [3C 93-107] (H-WAGWLLSPRGSRPSW-OH; N-terminus and C-terminus assumed): the IC50 is 50000 nM in the assay on DR3; over 100000 nM with DP402; 2570 nM in the assay on DRB5; 5000 nM in the assay on DRB4; 6330 nM on HLA-DR1 (DRB1*0101) (competition with biotinylated tracer HA 306-318, read-out: IC50, binding to HLA-DR1); 87 nM in the assay on DR11. The IC50 was over 100000 nM in the assay with DRB3, 27500 nM in the assay with DR15 and 60000 nM with DR4. Also, the “affinity for HLA-DR1 (in words)” value on HLA-DR1 (DRB1*0101) (legend of FIG. 4) was “low affinity”.

On to `CC[C@H](C)[C@H](NC(=O)[C@H](Cc1ccccc1)NC(=O)[C@H](CC(=O)O)NC(=O)[C@@H](NC(=O)[C@H](C)NC(=O)[C@H](CCCCN)NC(=O)[C@H](C)N)C(C)C)C(=O)N1CCC[C@H]1C(=O)N[C@H](C(=O)N[C@@H](CCC(=O)O)C(=O)N[C@@H](CC(N)=O)C(=O)N[C@@H](CC(C)C)C(=O)N[C@@H](CCC(=O)O)C(=O)N[C@H](C(=O)N[C@H](C(=O)N[C@@H](CCSC)C(=O)N[C@@H](CCCNC(=N)N)C(=O)N[C@@H](CO)C(=O)N1CCC[C@H]1C(=O)N[C@H](C(=O)N[C@@H](Cc1ccccc1)C(=O)N[C@H](C(=O)N[C@@H](CC(=O)O)C(=O)O)[C@@H](C)O)C(C)C)[C@@H](C)O)[C@@H](C)O)C(C)C` [16N 1190-1212], for which the IC50 in the assay on DP401 was 4110 nM; with DP402 it was 1440 nM; with DR15, 700 nM; in the assay with DR1, 600 nM. For the same molecule, the IL2 result in [1] (setting [2]) was “— 85 pg/ml”; in assay [1] (setting [3]) it was “— 17 pg/ml”; in [1] (setting [4]), 5 pg/mL; in assay [1] (setting [5]), 18 pg/mL; in assay [1] (setting [6]) it was 72 pg/mL. This molecule had an IL10 in [1] (setting [6]) of 123 pg/mL.

For the molecule `CC(C)C[C@H](NC(=O)[C@H](Cc1c[nH]cn1)NC(=O)[C@H](C)NC(=O)[C@@H](NC(=O)[C@H](CCC(N)=O)NC(=O)[C@H](Cc1ccccc1)NC(=O)[C@H](CO)NC(=O)[C@H](CCC(N)=O)NC(=O)[C@@H]1CCCN1C(=O)[C@@H](NC(=O)[C@@H](NC(=O)[C@@H]1CCCN1C(=O)[C@@H]1CCCN1C(=O)[C@H](CO)NC(=O)[C@H](CO)NC(=O)[C@H](CC(N)=O)NC(=O)[C@H](CC(=O)O)NC(=O)[C@@H](NC(=O)[C@H](Cc1ccccc1)NC(=O)[C@@H](NC(=O)[C@@H]1CCCN1C(=O)[C@H](CO)NC(=O)[C@@H](N)CCCNC(=N)N)C(C)C)[C@@H](C)O)C(C)C)C(C)C)C(C)C)C(=O)N[C@@H](Cc1c[nH]cn1)C(=O)N[C@@H](C)C(=O)N1CCC[C@H]1C(=O)N[C@H](C(=O)NCC(=O)N[C@@H](CO)C(=O)NCC(=O)N[C@@H](CCCCN)C(=O)N[C@@H](CO)C(=O)N[C@H](C(=O)N[C@@H](CCCCN)C(=O)O)[C@@H](C)O)[C@@H](C)O` [17N 1206-1239], the IC50 is 64800 nM with DP401; 14600 nM with DP402; 3880 nM with DRB4; under 1000 nM at HLA-DR1 (DRB1*0101) (setting [7]); under 1000 nM at HLA-DR11 (DRB1*1101); 550 nM in the assay on DR11. In addition, the IC50 with DRB3 is 5250 nM; on HLA-DRB5 (DRB5*0101), under 1000 nM; in the assay with DR15 it was 10000 nM; at HLA-DR7 (DRB1*0701), under 1000 nM; in the assay on DR4 it was 425 nM; at HLA-DR4 (DRB1*0401), under 1000 nM. This molecule yielded an IC50 with DR1 of 55 nM.

With `CC[C@H](C)[C@H](NC(=O)[C@H](CC(C)C)NC(=O)[C@H](Cc1c[nH]cn1)NC(=O)[C@H](CCCNC(=N)N)NC(=O)CNC(=O)CNC(=O)[C@H](CCCCN)NC(=O)[C@@H](NC(=O)[C@@H](NC(=O)[C@H](CCC(=O)O)NC(=O)[C@H](CC(C)C)NC(=O)[C@@H]1CCCN1C(=O)[C@@H](NC(=O)[C@H](C)NC(=O)[C@H](CCCCN)NC(=O)CN)[C@@H](C)CC)C(C)C)[C@@H](C)CC)C(=O)N[C@@H](Cc1ccccc1)C(=O)N[C@@H](CS)C(=O)N[C@@H](Cc1c[nH]cn1)C(=O)N[C@@H](CO)C(=O)N[C@@H](CCCCN)C(=O)N[C@@H](CCCCN)C(=O)N[C@@H](CCCCN)C(=O)N[C@@H](C)C(=O)N[C@@H](CC(=O)O)C(=O)N[C@@H](CCC(=O)O)C(=O)N[C@@H](CC(C)C)C(=O)O` [23N 1377-1403] (H-GKAIPLEVIKGGRHLIFCHSKKKADEL-OH; N-terminus and C-terminus assumed), the IC50 in the assay with DRB5 was 3 nM; on HLA-DRB4 (DRB4*0101), under 1000 nM; in the assay with DRB4, 900 nM; on HLA-DR1 (DRB1*0101) (setting [7]), under 1000 nM; at HLA-DR11 (DRB1*1101) it was under 1000 nM; with DRB3, over 10000 nM. Moreover, the IC50 at HLA-DRB5 (DRB5*0101) was under 1000 nM; at HLA-DR7 (DRB1*0701) it was under 1000 nM; at HLA-DR13 (DRB1*1301) (read-out: binds with good affinity to DR13) it was under 1000 nM; in the assay with DR4 it was 3000 nM. Further, the IL2 entry was “— 51 pg/ml” in assay [1] (setting [2]) and 58 pg/mL in [1] (setting [6]). Besides, the IL10 in assay [1] (setting [3]) is 54 pg/mL; in [1] (setting [5]) it was 29 pg/mL; in assay [1] (patient 815, assay at 24 h instead of 48 h), 63* — pg/ml. Further, the IFNγ in [1] (setting [4]) stood at 57 pg/mL. Further, the IL4 in [1] (setting [4]) came to 23 pg/mL.

On to `CC[C@H](C)[C@H](NC(=O)[C@H](Cc1c[nH]cn1)NC(=O)[C@H](CCCNC(=N)N)NC(=O)[C@@H](NC(=O)[C@@H](NC(=O)[C@H](CC(C)C)NC(=O)[C@H](CCCNC(=N)N)NC(=O)[C@@H](NC(=O)[C@H](CCCNC(=N)N)NC(=O)[C@H](CCC(=O)O)NC(=O)[C@@H](N)[C@@H](C)O)C(C)C)C(C)C)[C@@H](C)O)C(=O)N[C@@H](Cc1ccc(O)cc1)C(=O)N[C@@H](CC(N)=O)C(=O)N[C@@H](CCCNC(=N)N)C(=O)N[C@@H](CCC(=O)O)C(=O)N[C@@H](CCC(=O)O)C(=O)O` [B1 21-36, reference compound] (H-TERVRLVTRHIYNREE-OH; N-terminus and C-terminus assumed), for which, on HLA-DR13 (DRB1*1301) (tracer B1 21-36, read-out: IC50, binding to HLA-DR13), the IC50 amounted to 330 nM.
